# pIC50, pKd: −log10 of the molar value. Activity calls are given as the source filed them. No cut-off for these calls is given here.
# What was measured:
# [1] = tested on: Rattus norvegicus; assay: Anti-arthritic activity in Sprague-Dawley rat model of acute gout arthritis assessed as reduction in MSU-induced joint swelling at 1 mg/kg, ia administered 1 hr before MSU challenge and measured upto 24 hrs; type: functional, organism-based
# [2] = tested on: RAW264.7; assay: Inhibition of LPS-induced NO overproduction in mouse RAW264.7 cells at 1 uM incubated for 2 hrs followed by LPS stimulation and measured after 22 hrs by Griess reagent based assay relative to control; type: functional; settings: Mus musculus, RAW264.7
# [3] = molecular target: Bromodomain-containing protein 2 (Homo sapiens, UniProt P25440); assay: Displacement of tetra-acetylated histone H4 peptide (1-21) from BRD2 BD1 (unknown origin) incubated for 30 mins followed by further incubation with tetra-acetylated histone H4 peptide (1-21) for 30 mins by Alphascreen assay
# [4] = molecular target: T1, Peregrin (Homo sapiens, UniProt P55201); assay: Displacement of tetra-acetylated histone H4 peptide (1-21) from BRPF1b (unknown origin) incubated for 30 mins followed by further incubation with tetra-acetylated histone H4 peptide (1-21) for 30 mins by Alphascreen assay
# T1 sequence (P55201 whole entry): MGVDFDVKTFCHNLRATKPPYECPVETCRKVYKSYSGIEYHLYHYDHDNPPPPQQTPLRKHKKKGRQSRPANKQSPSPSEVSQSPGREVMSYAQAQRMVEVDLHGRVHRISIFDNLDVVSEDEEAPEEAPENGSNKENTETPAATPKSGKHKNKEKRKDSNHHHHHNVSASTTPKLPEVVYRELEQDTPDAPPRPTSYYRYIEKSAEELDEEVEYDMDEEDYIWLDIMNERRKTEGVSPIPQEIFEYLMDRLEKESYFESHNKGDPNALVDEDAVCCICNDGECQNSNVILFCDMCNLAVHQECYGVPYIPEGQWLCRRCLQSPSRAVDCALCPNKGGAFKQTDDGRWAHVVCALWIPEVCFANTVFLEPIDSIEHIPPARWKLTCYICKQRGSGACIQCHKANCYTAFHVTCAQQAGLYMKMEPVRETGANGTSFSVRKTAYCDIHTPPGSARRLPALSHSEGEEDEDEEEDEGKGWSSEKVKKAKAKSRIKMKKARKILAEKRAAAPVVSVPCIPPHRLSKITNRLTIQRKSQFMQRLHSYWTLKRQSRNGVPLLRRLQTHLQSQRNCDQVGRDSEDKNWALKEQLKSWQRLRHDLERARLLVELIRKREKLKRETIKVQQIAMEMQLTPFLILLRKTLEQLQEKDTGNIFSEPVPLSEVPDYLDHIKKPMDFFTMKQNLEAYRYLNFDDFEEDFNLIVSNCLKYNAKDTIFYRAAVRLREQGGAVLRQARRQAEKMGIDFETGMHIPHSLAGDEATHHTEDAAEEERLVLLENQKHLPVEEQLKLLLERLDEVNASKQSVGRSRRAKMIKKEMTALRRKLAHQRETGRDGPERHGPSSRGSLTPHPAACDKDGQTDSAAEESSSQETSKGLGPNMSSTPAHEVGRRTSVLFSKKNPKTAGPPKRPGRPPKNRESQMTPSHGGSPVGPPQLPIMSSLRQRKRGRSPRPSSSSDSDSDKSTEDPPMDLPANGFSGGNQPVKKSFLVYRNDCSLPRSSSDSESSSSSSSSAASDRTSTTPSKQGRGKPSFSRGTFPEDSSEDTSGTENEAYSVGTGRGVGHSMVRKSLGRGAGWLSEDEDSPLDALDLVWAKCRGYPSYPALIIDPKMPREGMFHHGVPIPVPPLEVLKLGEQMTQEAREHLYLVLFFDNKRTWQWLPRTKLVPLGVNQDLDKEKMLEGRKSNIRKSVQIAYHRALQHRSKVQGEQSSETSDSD
# [5] = species: Homo sapiens; assay: Selectivity index, ratio of IC50 BRD2 BD1 (unknown origin) to IC50 for recombinant human N-terminal His-tagged BRD4 BD1 (44 to 170 residues) expressed in Escherichia coli by AlphaScreen assay
# [6] = species: Homo sapiens; assay: Selectivity index, ratio of IC50 for BRD3 BD1 (unknown origin) to IC50 for recombinant human N-terminal His-tagged BRD4 BD1 (44 to 170 residues) expressed in Escherichia coli by AlphaScreen assay
# [7] = species: Homo sapiens; assay: Selectivity index, ratio of IC50 for BRD3 BD2 (unknown origin) to IC50 for recombinant human N-terminal His-tagged BRD4 BD1 (44 to 170 residues) expressed in Escherichia coli by AlphaScreen assay
# [8] = species: Homo sapiens; assay: Selectivity index, ratio of IC50 for BRPF1b (unknown origin) to IC50 for recombinant human N-terminal His-tagged BRD4 BD1 (44 to 170 residues) expressed in Escherichia coli by AlphaScreen assay
# [9] = molecular target: T2, Bromodomain-containing protein 4 (Homo sapiens, UniProt O60885); assay: Binding affinity to immobilized DNA-tagged human BRD4 BD1 by BROMOscan analysis
# [10] = Permeability of compound at 10 uM by PAMPA assay; type: ADME; settings: read-out: permeability
# [11] = Metabolic stability in human liver microsomes assessed as half life measured upto 60 mins by LC/MS-MS analysis; type: ADME, Microsome
# [12] = Metabolic stability in monkey liver microsomes assessed as half life measured upto 60 mins by LC/MS-MS analysis; type: ADME, Macaca mulatta, Microsome; settings: rhesus monkey
# [13] = Metabolic stability in dog liver microsomes assessed as half life measured upto 60 mins by LC/MS-MS analysis; type: ADME, Canis lupus familiaris, Microsome
# [14] = Metabolic stability in dog liver microsomes assessed as intrinsic clearance measured per mg protein upto 60 mins by LC/MS-MS analysis; type: ADME, Canis lupus familiaris, Microsome; settings: read-out: CLH
# [15] = molecular target: T2, Bromodomain-containing protein 4; assay: Inhibition of MSU-induced BRD4 expression in human THP1 cells at 1 uM incubated for 1 hr followed by MSU treatment and measured after 12 hrs by Western blot analysis; type: cell-based
# [16] = tested on: Rattus norvegicus; assay: Anti-arthritic activity in Sprague-Dawley rat model of acute gout arthritis assessed as reduction in MSU-induced synovial hyperplasia at 1 mg/kg, ia administered 1 hr before MSU challenge and measured upto 24 hrs by hematoxylin and eosin staining based histopathological analysis; type: functional, organism-based
# [17] = tested on: Rattus norvegicus; assay: Anti-arthritic activity in Sprague-Dawley rat model of acute gout arthritis assessed as reduction in MSU-induced IL-1beta level in synovial tissue at 1 mg/kg, ia administered 1 hr before MSU challenge and measured upto 24 hrs by ELISA; type: functional, organism-based
# [18] = tested on: Rattus norvegicus; assay: In vivo inhibition of MSU-induced NLRP3 inflammasome in synovial tissue of Sprague-Dawley rat model of acute gout arthritis at 1 mg/kg, ia administered 1 hr before MSU challenge and measured upto 24 hrs by immunofluorescence based confocal microscopy analysis; type: functional, organism-based
# [19] = molecular target: T2, Bromodomain-containing protein 4; assay: Binding affinity to immobilized DNA-tagged human BRD4 BD2 by BROMOscan analysis
# [20] = species: Homo sapiens; assay: Selectivity ratio of Kd for immobilized DNA-tagged human BRD4 BD1 to Kd for immobilized DNA-tagged human BRD4 BD2 by BROMOscan analysis
# [21] = tested on: Rattus norvegicus; assay: In vivo inhibition of MSU-induced NLRP3 and ASC co-localization in synovial tissue of Sprague-Dawley rat model of acute gout arthritis at 1 mg/kg, ia administered 1 hr before MSU challenge and measured upto 24 hrs by immunofluorescence based confocal microscopy analysis; type: functional, organism-based
# Chain of Bromodomain-containing protein 2 (P25440 whole entry): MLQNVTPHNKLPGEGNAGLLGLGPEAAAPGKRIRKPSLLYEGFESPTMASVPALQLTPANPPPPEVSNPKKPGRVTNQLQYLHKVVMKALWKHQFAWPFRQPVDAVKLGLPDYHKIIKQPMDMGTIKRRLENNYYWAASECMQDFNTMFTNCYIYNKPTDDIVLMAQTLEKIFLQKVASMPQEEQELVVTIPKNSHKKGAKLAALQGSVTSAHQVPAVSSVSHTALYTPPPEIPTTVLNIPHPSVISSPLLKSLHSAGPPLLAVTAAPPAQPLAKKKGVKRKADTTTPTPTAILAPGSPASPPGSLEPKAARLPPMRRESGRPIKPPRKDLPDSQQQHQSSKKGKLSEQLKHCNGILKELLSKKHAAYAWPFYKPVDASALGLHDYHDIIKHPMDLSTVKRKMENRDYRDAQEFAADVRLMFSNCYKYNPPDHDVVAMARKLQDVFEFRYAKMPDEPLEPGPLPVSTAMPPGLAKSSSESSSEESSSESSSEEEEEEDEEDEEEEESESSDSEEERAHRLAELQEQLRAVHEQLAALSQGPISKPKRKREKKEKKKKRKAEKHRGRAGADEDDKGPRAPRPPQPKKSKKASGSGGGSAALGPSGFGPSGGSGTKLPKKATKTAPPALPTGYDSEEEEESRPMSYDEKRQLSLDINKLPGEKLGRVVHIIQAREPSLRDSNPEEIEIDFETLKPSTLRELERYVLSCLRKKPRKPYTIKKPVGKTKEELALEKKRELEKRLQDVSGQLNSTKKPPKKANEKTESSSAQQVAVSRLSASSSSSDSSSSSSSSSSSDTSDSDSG
smiles,measurement,setting,value
COc1ccccc1S(=O)(=O)Nc1ccc2c3c(cc(-n4cnc(C)c4)nc13)C(=O)N2C,inhibition,[1],Active
same,inhibition at 1 µM,[2],102%
same,pIC50,[3],5.05
same,pIC50,[4],6.25
same,Ratio IC50,[5],102
same,Ratio IC50,[6],2.8
same,Ratio IC50,[7],568
same,Ratio IC50,[8],6.5
same,pKd,[9],6.98
same,Papp at 10 µM,[10],0.117 ×10⁻⁶ cm/s
same,half-life,[11],14.8 min
same,half-life,[12],10.3 min
same,half-life,[13],10.4 min
same,microsomal CLint,[14],133 µL/min/mg
same,inhibition,[15],Active
same,inhibition,[16],Active
same,inhibition,[17],Active
same,inhibition,[18],Active
same,pKd,[19],< 4.60
same,Selectivity ratio,[20],238
same,inhibition,[21],Active
